The target in assay [1] is recombinant human EGFR exon 19 deletion/C797S double mutant protein (Homo sapiens (Human), UniProt P00533, C797S/DEL746-750). Nature of the assay: Biological Activity Assay C: biochemical assay against EGFR exon 19 deletion/C797S protein (EGFR d19/CS). Summed up: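 IC50 values were fitted with a 4-parameter model to reaction slopes taken from 90 kinetic reads spaced 120 s apart. The Phosphosens sensor/ATP working solution was 40 uM/4 mM, and compound was dosed as 16-point dilutions at 2.5% final DMSO.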
Sequence of recombinant human EGFR exon 19 deletion/C797S double mutant protein (P00533 other isoform, or with tags, fused parts or gaps C797S/del 1-668/del 746-750 limits assumed): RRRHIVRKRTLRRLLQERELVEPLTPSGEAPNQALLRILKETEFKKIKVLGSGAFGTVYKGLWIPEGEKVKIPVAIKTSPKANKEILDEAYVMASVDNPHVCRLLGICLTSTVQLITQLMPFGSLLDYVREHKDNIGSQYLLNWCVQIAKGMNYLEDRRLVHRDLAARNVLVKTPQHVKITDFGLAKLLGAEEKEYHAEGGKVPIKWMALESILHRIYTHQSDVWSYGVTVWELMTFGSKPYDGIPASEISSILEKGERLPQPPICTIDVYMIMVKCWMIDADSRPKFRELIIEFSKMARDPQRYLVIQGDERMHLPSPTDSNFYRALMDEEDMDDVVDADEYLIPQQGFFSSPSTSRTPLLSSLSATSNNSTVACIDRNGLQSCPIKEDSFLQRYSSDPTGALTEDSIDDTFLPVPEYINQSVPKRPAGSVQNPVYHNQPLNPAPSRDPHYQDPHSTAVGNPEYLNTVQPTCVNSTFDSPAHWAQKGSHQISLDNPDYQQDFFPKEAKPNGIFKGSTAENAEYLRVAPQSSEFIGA

Another assay concerns Ba/F3_EGFR WT cells. Nature of the assay: Biological Activity Assay D: BaF3 cell proliferation assay, EGFR wild-type (BaF3 WT). Type of assay: cell-based. Particulars: Ba/F3 EGFR, read-out: BaF3 WT IC50.
The subject of another assay is BaF3_EGFR LR/CS cells. Nature of the assay: Biological Activity Assay D: BaF3 cell proliferation assay, EGFR L858R/C797S mutant (BaF3 LR/CS). The assay is classed as cell-based. As to conditions: Ba/F3 EGFR, read-out: BaF3 LR/CS IC50.
The next assay relates to BaF3_EGFR d19/CS cells. Nature of the assay: Biological Activity Assay D: BaF3 cell proliferation assay, EGFR exon 19 deletion/C797S (BaF3 d19/CS). Type of assay: cell-based. Particulars: Ba/F3 EGFR, read-out: BaF3 d19/CS IC50.
Setting [2] is: Ba/F3_EGFR WT cells, ~72 hours, CellTiter-Glo.
Where [3] appears, read: BaF3_EGFR LR/CS cells, ~72 hours, CellTiter-Glo.
Setting [4] is: BaF3_EGFR d19/CS cells, ~72 hours, CellTiter-Glo.

Where two headings read alike, the source gives them in different places.

For the compound `CC(=O)N1CC=C(c2cc3c(-c4cn(CC(C)(C)O)nc4-c4ccc(F)cc4)ncnc3o2)CC1` [Example 138, 1-[4-{4-[3-(4-Fluorophenyl)-1-(2-hydroxy-2-methylpropyl)-1H-pyrazol-4-yl]furo[2,3-d]pyrimidin-6-yl}-3,6-dihydropyridin-1 (2H)-yl]ethan-1-one], the IC50 in assay [1] turned out to be 0.0005 µM; in the assay with Ba/F3_EGFR WT cells (setting [2]), 1.39 µM; with BaF3_EGFR LR/CS cells (setting [3]), 0.0944 µM; with BaF3_EGFR d19/CS cells (setting [4]), 0.0637 µM.

As to `CC(C)(C)OC(=O)N1C=C(c2cc3c(-c4cn(C5CS(=O)(=O)C5)nc4-c4ccc(F)cc4)ncnc3o2)CCC1` [Example 139, tert-butyl 5-{4-[1-(1,1-dioxo-1λ6-thietan-3-yl)-3-(4-fluorophenyl)-1H-pyrazol-4-yl]furo[2,3-d]pyrimidin-6-yl}-3,4-dihydropyridine-1(2H)-carboxylate], the IC50 amounted to 0.00855 µM in assay [1], 10.3 µM in the assay on Ba/F3_EGFR WT cells (setting [2]), 0.574 µM with BaF3_EGFR LR/CS cells (setting [3]) and 0.551 µM with BaF3_EGFR d19/CS cells (setting [4]).

Turning to `CC(=O)N1CC(C#Cc2cc3c(-c4cn(C5CS(=O)(=O)C5)nc4-c4ccc(F)cc4)ncnc3o2)C1` [Example 140, 3-[4-{6-[(1-Acetylazetidin-3-yl)ethynyl]furo[2,3-d]pyrimidin-4-yl}-3-(4-fluorophenyl)-1H-pyrazol-1-yl]-16-thietane-1,1-dione], the IC50 in assay [1] is 0.00332 µM; with Ba/F3_EGFR WT cells (setting [2]) it was 5.68 µM; in the assay with BaF3_EGFR LR/CS cells (setting [3]), 1.63 µM; with BaF3_EGFR d19/CS cells (setting [4]) it was 0.916 µM.

Consider `CC(=O)NCCCn1cc(-c2ncnc3oc(-c4ccccc4)cc23)c(-c2ccc(F)cc2)n1` [Example 141, N-{3-[3-(4-Fluorophenyl)-4-(6-phenylfuro[2,3-d]pyrimidin-4-yl)-1H-pyrazol-1-yl]propyl}acetamide], for which the IC50 is 0.00025 µM in assay [1], 0.921 µM with Ba/F3_EGFR WT cells (72 h), 0.0436 µM in the assay with BaF3_EGFR LR/CS cells (72 h) and 0.0661 µM in the assay on BaF3_EGFR d19/CS cells (72 h).

Consider `Fc1ccc(-c2nn(C3CCC(F)(F)CC3)cc2-c2ncnc3oc(-c4ccccc4)cc23)cc1` [Example 142, 4-[1-(4,4-difluorocyclohexyl)-3-(4-fluorophenyl)-1H-pyrazol-4-yl]-6-phenylfuro[2,3-d]pyrimidine], for which the IC50 in assay [1] amounted to 0.00519 µM; in the assay on Ba/F3_EGFR WT cells (setting [2]), 6.07 µM; with BaF3_EGFR LR/CS cells (setting [3]), 0.313 µM; in the assay with BaF3_EGFR d19/CS cells (setting [4]), 0.398 µM.

In the case of `CNC(=O)Cn1cc(-c2ncnc3oc(-c4ccccc4)cc23)c(-c2ccc(F)cc2)n1` [Example 143, 2-[3-(4-Fluorophenyl)-4-(6-phenylfuro[2,3-d]pyrimidin-4-yl)-1H-pyrazol-1-yl]-N-methylacetamide], the IC50 in assay [1] worked out at 0.00038 µM; with Ba/F3_EGFR WT cells (setting [2]) it was 0.663 µM; with BaF3_EGFR LR/CS cells (setting [3]), 0.0598 µM; in the assay on BaF3_EGFR d19/CS cells (setting [4]), 0.0943 µM.

`CC(C)(O)CCn1cc(-c2ncnc3[nH]c(-c4ccccc4)nc23)c(-c2ccc(F)cc2)n1` [Example 145, 4-[3-(4-fluorophenyl)-4-(8-phenyl-9H-purin-6-yl)-1H-pyrazol-1-yl]-2-methylbutan-2-ol]: the IC50 in assay [1] is 0.00055 µM; in the assay on Ba/F3_EGFR WT cells (setting [2]), 3.21 µM; in the assay on BaF3_EGFR LR/CS cells (setting [3]) it was 0.0836 µM; in the assay with BaF3_EGFR d19/CS cells (setting [4]) it was 0.114 µM.

Consider `CC(C)(C)OC(=O)N1CCC=C(c2cc3c(-c4cn(C5CS(=O)(=O)C5)nc4-c4ccc(F)cc4)ncnc3o2)C1` [Example 146, tert-butyl 5-{4-[1-(1,1-dioxo-1λ6-thietan-3-yl)-3-(4-fluorophenyl)-1H-pyrazol-4-yl]furo[2,3-d]pyrimidin-6-yl}-3,6-dihydropyridine-1(2H)-carboxylate], for which the IC50 amounted to 0.00418 µM in assay [1], 7.88 µM with Ba/F3_EGFR WT cells (setting [2]), 0.928 µM with BaF3_EGFR LR/CS cells (setting [3]) and 0.525 µM in the assay on BaF3_EGFR d19/CS cells (setting [4]).

On to `NC(=O)CCCn1cc(-c2ncnc3oc(-c4ccccc4)cc23)c(-c2ccc(F)cc2)n1` [Example 147, 4-[3-(4-Fluorophenyl)-4-(6-phenylfuro[2,3-d]pyrimidin-4-yl)-1H-pyrazol-1-yl]butanamide], for which the IC50 in assay [1] was 0.00026 µM; in the assay on Ba/F3_EGFR WT cells (setting [2]), 1.38 µM; with BaF3_EGFR LR/CS cells (setting [3]) it was 0.0733 µM; in the assay on BaF3_EGFR d19/CS cells (setting [4]), 0.0686 µM.

Take `CN1CCC(n2cc(-c3ncnc4oc(-c5ccccc5)cc34)c(-c3ccc(F)cc3)n2)C1=O` (stereo not drawn) [Example 148, 3-[3-(4-Fluorophenyl)-4-(6-phenylfuro[2,3-d]pyrimidin-4-yl)-1H-pyrazol-1-yl]-1-methylpyrrolidin-2-one]: the IC50 in assay [1] turned out to be 0.00061 µM; in the assay on Ba/F3_EGFR WT cells (setting [2]) it was 1.51 µM; in the assay with BaF3_EGFR LR/CS cells (setting [3]), 0.0698 µM; in the assay with BaF3_EGFR d19/CS cells (setting [4]) it was 0.0924 µM.

In the case of `CC(=O)N1CCN(c2cc3c(-c4cn(C5CS(=O)(=O)C5)nc4-c4ccc(F)cc4)ncnc3o2)CC1` [Example 149, 3-{4-[6-(4-acetylpiperazin-1-yl)furo[2,3-d]pyrimidin-4-yl]-3-(4-fluorophenyl)-1H-pyrazol-1-yl}-1λ6-thietane-1,1-dione], the IC50 was 0.00372 µM in assay [1], more than 20 µM in the assay with Ba/F3_EGFR WT cells (setting [2]), 2.77 µM in the assay on BaF3_EGFR LR/CS cells (setting [3]) and 1.16 µM with BaF3_EGFR d19/CS cells (setting [4]).

As for `Fc1ccc(-c2nn([C@H]3C[C@@H](F)C3)cc2-c2ncnc3oc(-c4ccccc4)cc23)cc1` [Example 150, 4-{1-[(1s,3s)-3-fluorocyclobutyl]-3-(4-fluorophenyl)-1H-pyrazol-4-yl}-6-phenylfuro[2,3-d]pyrimidine], the IC50 was found to be 0.00142 µM in assay [1], 3.32 µM in the assay with Ba/F3_EGFR WT cells (setting [2]), 0.0422 µM in the assay with BaF3_EGFR LR/CS cells (setting [3]) and 0.0699 µM in the assay on BaF3_EGFR d19/CS cells (setting [4]).

For the compound `O=S1(=O)CC(n2cc(-c3ncnc4oc(C5=CNCCC5)cc34)c(-c3ccc(F)cc3)n2)C1` [Example 154, 3-{3-(4-fluorophenyl)-4-[6-(1,4,5,6-tetrahydropyridin-3-yl)furo[2,3-d]pyrimidin-4-yl]-1H-pyrazol-1-yl}-1λ6-thietane-1,1-dione], the IC50 was determined as 0.00075 µM in assay [1], 16.3 µM in the assay on Ba/F3_EGFR WT cells (setting [2]), 0.63 µM with BaF3_EGFR LR/CS cells (setting [3]) and 0.44 µM in the assay on BaF3_EGFR d19/CS cells (setting [4]).

Turning to `CC(=O)N1C=C(c2cc3c(-c4cn(C5CS(=O)(=O)C5)nc4-c4ccc(F)cc4)ncnc3o2)CCC1` [Example 155, 3-{4-[6-(1-acetyl-1,4,5,6-tetrahydropyridin-3-yl)furo[2,3-d]pyrimidin-4-yl]-3-(4-fluorophenyl)-1H-pyrazol-1-yl}-1λ6-thietane-1,1-dione], the IC50 in assay [1] stood at 0.00041 µM; in the assay with Ba/F3_EGFR WT cells (setting [2]), 1.16 µM; with BaF3_EGFR LR/CS cells (setting [3]), 0.065 µM; in the assay on BaF3_EGFR d19/CS cells (setting [4]), 0.0638 µM.

As to `FCCCn1cc(-c2ncnc3oc(-c4ccccc4)cc23)c(-c2ccc(F)cc2)n1` [Example 156, 4-[3-(4-fluorophenyl)-1-(3-fluoropropyl)-1H-pyrazol-4-yl]-6-phenylfuro[2,3-d]pyrimidine], the IC50 in assay [1] turned out to be 0.00031 µM; with Ba/F3_EGFR WT cells (setting [2]), 1.48 µM; in the assay with BaF3_EGFR LR/CS cells (setting [3]), 0.0188 µM; in the assay with BaF3_EGFR d19/CS cells (setting [4]), 0.0305 µM.

Consider `CC(C)(Cn1cc(-c2ncnc3oc(-c4ccccc4)cc23)c(-c2ccc(F)cc2)n1)C(N)=O` [Example 158, 3-[3-(4-fluorophenyl)-4-(6-phenylfuro[2,3-d]pyrimidin-4-yl)-1H-pyrazol-1-yl]-2,2-dimethylpropanamide], for which the IC50 was determined as 0.00026 µM in assay [1], 0.782 µM in the assay on Ba/F3_EGFR WT cells (setting [2]), 0.0151 µM in the assay with BaF3_EGFR LR/CS cells (setting [3]) and 0.033 µM with BaF3_EGFR d19/CS cells (setting [4]).

As to `O=S1(=O)CC(n2cc(-c3ncnc4oc(C5=CCCNC5)cc34)c(-c3ccc(F)cc3)n2)C1` [Example 159, 3-{3-(4-fluorophenyl)-4-[6-(1,2,5,6-tetrahydropyridin-3-yl)furo[2,3-d]pyrimidin-4-yl]-1H-pyrazol-1-yl}-1λ6-thietane-1,1-dione], the IC50 amounted to 0.00379 µM in assay [1], 6.05 µM in the assay on Ba/F3_EGFR WT cells (setting [2]), 0.511 µM in the assay on BaF3_EGFR LR/CS cells (setting [3]) and 0.267 µM in the assay with BaF3_EGFR d19/CS cells (setting [4]).

On to `O=C1CCCCN1c1cc2c(-c3cn(C4CS(=O)(=O)C4)nc3-c3ccc(F)cc3)ncnc2o1` [Example 160, 3-{3-(4-fluorophenyl)-4-[6-(2-oxopiperidin-1-yl)furo[2,3-d]pyrimidin-4-yl]-1H-pyrazol-1-yl}-1λ6-thietane-1,1-dione], for which the IC50 was determined as 0.00499 µM in assay [1], 14.2 µM in the assay with Ba/F3_EGFR WT cells (setting [2]), 0.751 µM with BaF3_EGFR LR/CS cells (setting [3]) and 0.359 µM with BaF3_EGFR d19/CS cells (setting [4]).

Regarding `N=S1(=O)CCC(n2cc(-c3ncnc4oc(-c5ccccc5)cc34)c(-c3ccc(F)cc3)n2)C1` (stereo not drawn) [Example 161, 3-[3-(4-fluorophenyl)-4-(6-phenylfuro[2,3-d]pyrimidin-4-yl)-1H-pyrazol-1-yl]-1-imino-1λ6-thiolan-1-one], the IC50 in assay [1] amounted to 0.00014 µM; in the assay on Ba/F3_EGFR WT cells (setting [2]), 0.565 µM; in the assay on BaF3_EGFR LR/CS cells (setting [3]), 0.00493 µM; in the assay on BaF3_EGFR d19/CS cells (setting [4]), 0.0131 µM.

On to `C[C@]1(O)C[C@@H](Cn2cc(-c3ncnc4oc(-c5ccccc5)cc34)c(-c3ccc(F)cc3)n2)C1` [Example 162, (1s,3s)-3-{[3-(4-fluorophenyl)-4-(6-phenylfuro[2,3-d]pyrimidin-4-yl)-1H-pyrazol-1-yl]methyl}-1-methylcyclobutan-1-ol], for which the IC50 in assay [1] is 0.00044 µM; in the assay with Ba/F3_EGFR WT cells (setting [2]), 1.36 µM; with BaF3_EGFR LR/CS cells (setting [3]), 0.0106 µM; in the assay with BaF3_EGFR d19/CS cells (setting [4]), 0.0639 µM.

For the compound `CS(=O)(=O)[C@H]1C[C@@H](n2cc(-c3ncnc4oc(-c5ccccc5)cc34)c(-c3ccc(F)cc3)n2)C1` [Example 163, 4-{3-(4-fluorophenyl)-1-[(1s,3s)-3-(methanesulfonyl)cyclobutyl]-1H-pyrazol-4-yl}-6-phenylfuro[2,3-d]pyrimidine], the IC50 in assay [1] stood at 0.00027 µM; with Ba/F3_EGFR WT cells (setting [2]), 0.619 µM; in the assay on BaF3_EGFR LR/CS cells (setting [3]), 0.0101 µM; in the assay with BaF3_EGFR d19/CS cells (setting [4]) it was 0.0221 µM.

Source of the values: patent US20250034159A1, “INHIBITORS OF EPIDERMAL GROWTH FACTOR RECEPTOR” (ORIC Pharmaceuticals, Inc., priority 2021, published 2025).
